One assay has as its system SHR rats. As to the kind of experiment: 4-week evaluation of blood pressure lowering effect (non-invasive tail systolic and diastolic blood pressure). Format: in vivo, rat. Conditions: for Diastolic blood pressure at 1st week after administration / Diastolic blood pressure at 2nd week after administration / Diastolic blood pressure at 3rd week after administration / Diastolic blood pressure at 4th week after administration / Systolic blood pressure at 1st week after administration / Systolic blood pressure at 2nd week after administration / Systolic blood pressure at 3rd week after administration / Systolic blood pressure at 4th week after administration: oral once daily; for Diastolic blood pressure immediately after administration / Systolic blood pressure immediately after administration: oral, mean of 8 rats. The protocol:
As experimental animals, 6-week-old male SHR rats were used (however, WKY rats were used as a normal control). A method for measurement of blood pressure is as follows: […] The rats were divided into total 7 groups according to the kind of drug to be administered, and eight rats were randomly assigned to each group. The groups administered with each drug are as follows: (3) a group administered with test substance 1 (G3): a group administered with a combination of 2 mg/kg/day of olmesartan medoxomil+1 mg/kg/day of dapagliflozin; (4) a group administered with test substance 2 (G4): a group administered with a combination of 2 mg/kg/day of olmesartan medoxomil+3 mg/kg/day of dapagliflozin; (5) a group administered with comparative substance 1 (G5): a group administered with 2 mg/kg/day of olmesartan medoxomil alone; (6) a group administered with comparative substance 2 (G6): a group administered with 1 mg/kg/day of dapagliflozin alone; (7) a group administered with […]: a group administered with 3 mg/kg/day of dapagliflozin alone. (* In this Experimental Example, dapagliflozin was administered in an anhydride form, not a solvate form). For drug administration, each drug was forcibly administered into the rat's stomach through a disposable syringe with an oral zonde at a predetermined dose at the same time every day. As test substances, olmesartan medoxomil was administered, and then immediately dapagliflozin was administered. The doses of the antihypertensive drug and the antidiabetic drug were determined considering the doses to be applied in clinical practice.

Assay [1] relates to spontaneously hypertensive rats (SHRs). The assay is described as follows: 2-week evaluation of blood pressure lowering effect (non-invasive tail blood pressure, CODA-6). The assay is classed as in vivo, rat. Conditions: olmesartan medoxomil 1, valsartan 4, telmisartan 4, dapagliflozin (as propylene glycol hydrate) 1 mg/kg/day; for Systolic blood pressure immediately before administration: 10-week-old SHR, baseline, mean of 5 rats; for Size of blood pressure reduction / Systolic blood pressure at 14th day after administration: SHR; for Size of blood pressure reduction: 14th day versus before administration; for Systolic blood pressure at 14th day after administration: once daily for 14 days, measured 2 hours after dosing. As to the method:
The SHR rats are rats derived from Wistar Kyoto WKY) rats with normal blood pressure, and are rats that spontaneously develop hypertension with aging without any artificial treatment. […] The blood pressure in the experimental animals was measured using a CODA-6 system (Kent Scientific Corp.) which is a non-invasive blood pressure (NIBP) measurement system. […] The rats were divided into total 7 groups according to the kind of drug to be administered, and five rats were randomly assigned to each group. The groups administered with each drug are as follows: (2) a group administered with 1 mg/kg/day of olmesartan medoxomil alone; (3) a group administered with 4 mg/kg/day of valsartan alone; (4) a group administered with 4 mg/kg/day of telmisartan alone; (5) a group administered with a combination of 1 mg/kg/day of olmesartan medoxomil+1 mg/kg/day of dapagliflozin; (6) a group administered with a combination of 4 mg/kg/day of valsartan+1 mg/kg/day of dapagliflozin; (7) a group administered with a combination of 4 mg/kg/day of telmisartan+1 mg/kg/day of dapagliflozin. (*In this Example, a dapagliflozin propylene glycol hydrate corresponding to 1 mg of dapagliflozin was administered actually). For drug administration, each drug was administered to each rat once a day at a predetermined dose at the same time every morning. Considering that the amounts of antihypertensive drugs used in humans are different, the antihypertensive drugs were administered at different doses.

[2] abbreviates: SHR, 1st to 4th week, olmesartan medoxomil 2 mg/kg/day with (G3) or without (G5) dapagliflozin 1 mg/kg/day.
Setting [3] is: SHR, olmesartan medoxomil 2 mg/kg/day and/or dapagliflozin 1 mg/kg/day (G3, G5, G6).
Setting [4] is: p<0.01 at 1st, 2nd, 3rd and 4th week, olmesartan medoxomil 2 mg/kg/day with (G3) or without (G5) dapagliflozin 1 mg/kg/day.
The mark [5] stands for this setting: SHR, dapagliflozin 3 mg/kg/day with (G4) or without (G7) olmesartan medoxomil 2 mg/kg/day.

For `CCCc1nc(C(C)(C)O)c(C(=O)OCc2oc(=O)oc2C)n1Cc1ccc(-c2ccccc2-c2nnn[nH]2)cc1` [Olmesartan medoxomil, olmesartan medoxomil], in the assay on SHR rats (setting [2]), the “Range of mean diastolic blood pressure” value lay in the range of 127 to 172 mmHg and the “Range of mean systolic blood pressure” value is listed as 159 to 190 mmHg. Also, in the assay on SHR rats (setting [3]), the “Diastolic blood pressure at 1st week after administration” value (“Diastolic blood pressure at 1st week” for short) is 127 mmHg, the “Diastolic blood pressure at 2nd week after administration” value (shortened to “Diastolic blood pressure at 2nd week”) came to 153 mmHg, the “Diastolic blood pressure at 3rd week after administration” value (“Diastolic blood pressure at 3rd week” below) is on record as 153 mmHg and the “Diastolic blood pressure at 4th week after administration” value (from here on “Diastolic blood pressure at 4th week”) is on record as 172 mmHg. For the same molecule, in the assay on SHR rats (setting [3]), the “Systolic blood pressure at 1st week after administration” value (shortened to “Systolic blood pressure at 1st week”) is recorded as 159 mmHg, the “Systolic blood pressure at 2nd week after administration” value (shortened to “Systolic blood pressure at 2nd week”) is reported as 181 mmHg, the “Systolic blood pressure at 3rd week after administration” value (shortened to “Systolic blood pressure at 3rd week”) turned out to be 178 mmHg and the “Systolic blood pressure at 4th week after administration” value (shortened to “Systolic blood pressure at 4th week”) is given as 190 mmHg. For the same molecule, in the assay on SHR rats (setting [3]), the “Diastolic blood pressure immediately after administration” value (shortened to “Diastolic blood pressure immediately”) is reported as 140 mmHg and the “Systolic blood pressure immediately after administration” value is reported as 171 mmHg. In addition, in the assay on SHR rats (setting [4]), the “Mean diastolic blood pressure compared with negative control group (G2)” value was “statistically significantly lower” and the “Mean systolic blood pressure compared with negative control group (G2)” value is given as “statistically significantly lower”. For the same molecule, in assay [1], the “Systolic blood pressure immediately before administration” value was 202 mmHg, the “Size of blood pressure reduction” value is reported as 39 mmHg and the “Systolic blood pressure at 14th day after administration” value came out at 163 mmHg.
As to `CCCc1nc2c(C)cc(-c3nc4ccccc4n3C)cc2n1Cc1ccc(-c2ccccc2C(=O)O)cc1` [Telmisartan, telmisartan], in assay [1], the “Systolic blood pressure immediately before administration” value worked out at 203 mmHg, the “Size of blood pressure reduction” value turned out to be 35 mmHg and the “Systolic blood pressure at 14th day after administration” value is 168 mmHg.
On the same counts, the results for `CCCCC(=O)N(Cc1ccc(-c2ccccc2-c2nnn[nH]2)cc1)[C@H](C(=O)O)C(C)C` [Valsartan, valsartan] are 200 mmHg, 30 mmHg and 170 mmHg.
With `CCOc1ccc(Cc2cc([C@@H]3O[C@H](CO)[C@@H](O)[C@H](O)[C@H]3O)ccc2Cl)cc1` [dapagliflozin], in the assay with SHR rats (setting [5]), the “Diastolic blood pressure at 1st week” value was found to be 149 mmHg, the “Diastolic blood pressure at 2nd week” value amounted to 188 mmHg, the “Diastolic blood pressure at 3rd week” value worked out at 204 mmHg and the “Diastolic blood pressure at 4th week” value is reported as 186 mmHg. Besides, in the assay on SHR rats (setting [5]), the “Systolic blood pressure at 1st week” value was determined as 189 mmHg, the “Systolic blood pressure at 2nd week” value came to 219 mmHg, the “Systolic blood pressure at 3rd week” value was found to be 228 mmHg and the “Systolic blood pressure at 4th week” value is 212 mmHg. Also, in the assay on SHR rats (setting [5]), the “Diastolic blood pressure immediately” value is 139 mmHg and the “Systolic blood pressure immediately after administration” value is 172 mmHg. Moreover, in the assay on SHR rats (setting [3]), the “Diastolic blood pressure at 1st week” value is 154 mmHg, the “Diastolic blood pressure at 2nd week” value amounted to 179 mmHg, the “Diastolic blood pressure at 3rd week” value came to 175 mmHg and the “Diastolic blood pressure at 4th week” value is recorded as 187 mmHg. Also, in the assay on SHR rats (setting [3]), the “Systolic blood pressure at 1st week” value was determined as 185 mmHg, the “Systolic blood pressure at 2nd week” value was 213 mmHg, the “Systolic blood pressure at 3rd week” value is 204 mmHg and the “Systolic blood pressure at 4th week” value was found to be 211 mmHg. Also, in the assay on SHR rats (setting [3]), the “Diastolic blood pressure immediately” value came to 142 mmHg and the “Systolic blood pressure immediately after administration” value is reported as 172 mmHg.
